# According to ChEMBL document CHEMBL3400036, “Novel 4-substituted-N,N-dimethyltetrahydronaphthalen-2-amines: synthesis, affinity, and in silico docking studies at serotonin 5-HT2-type and histamine H1 G protein-coupled receptors” (Bioorg Med Chem, 2015):
# pKi: −log10 of the molar value.
# Assays:
# Assay type in all cases: cell-based
# [1] = molecular target: 5-hydroxytryptamine receptor 2A (Homo sapiens, UniProt P28223); test: Displacement of [3H]Ketanserin from human 5-HT2A receptor expressed in HEK293 cells by scintillation counting analysis
# [2] = molecular target: 5-hydroxytryptamine receptor 2B (Homo sapiens, UniProt P41595); test: Displacement of [3H]Mesulergine from human 5-HT2B receptor expressed in HEK293 cells by scintillation counting analysis
# [3] = molecular target: T1, 5-hydroxytryptamine receptor 2C (Homo sapiens, UniProt P28335); test: Displacement of [3H]Mesulergine from human 5-HT2C-INI receptor expressed in HEK293 cells by scintillation counting analysis
# T1 sequence (P28335 whole entry): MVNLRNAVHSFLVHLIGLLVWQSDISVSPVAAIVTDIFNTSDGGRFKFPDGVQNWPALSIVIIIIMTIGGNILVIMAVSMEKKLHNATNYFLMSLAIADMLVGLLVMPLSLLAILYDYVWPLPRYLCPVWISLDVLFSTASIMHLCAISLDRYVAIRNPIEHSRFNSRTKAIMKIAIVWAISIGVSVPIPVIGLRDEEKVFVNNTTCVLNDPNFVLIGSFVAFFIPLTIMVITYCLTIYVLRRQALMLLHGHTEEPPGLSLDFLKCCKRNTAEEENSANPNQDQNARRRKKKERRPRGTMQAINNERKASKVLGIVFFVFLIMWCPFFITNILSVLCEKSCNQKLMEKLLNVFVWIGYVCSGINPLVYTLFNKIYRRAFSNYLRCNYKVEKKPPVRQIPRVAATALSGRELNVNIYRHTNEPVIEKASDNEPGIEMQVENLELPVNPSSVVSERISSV
# Sequence of 5-hydroxytryptamine receptor 2A (P28223 whole entry): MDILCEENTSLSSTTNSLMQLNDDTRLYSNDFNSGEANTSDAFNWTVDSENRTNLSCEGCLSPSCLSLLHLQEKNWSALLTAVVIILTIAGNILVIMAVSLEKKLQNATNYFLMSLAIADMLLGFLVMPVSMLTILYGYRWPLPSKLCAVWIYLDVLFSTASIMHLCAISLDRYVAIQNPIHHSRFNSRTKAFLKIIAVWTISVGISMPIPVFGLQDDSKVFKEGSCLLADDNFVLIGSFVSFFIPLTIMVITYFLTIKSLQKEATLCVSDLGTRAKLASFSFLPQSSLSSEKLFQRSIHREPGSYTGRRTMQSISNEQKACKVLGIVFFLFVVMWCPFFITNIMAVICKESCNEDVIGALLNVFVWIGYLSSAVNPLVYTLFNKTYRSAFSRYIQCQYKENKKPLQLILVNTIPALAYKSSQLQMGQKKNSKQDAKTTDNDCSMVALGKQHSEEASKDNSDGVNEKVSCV
# Sequence of 5-hydroxytryptamine receptor 2B (P41595 whole entry): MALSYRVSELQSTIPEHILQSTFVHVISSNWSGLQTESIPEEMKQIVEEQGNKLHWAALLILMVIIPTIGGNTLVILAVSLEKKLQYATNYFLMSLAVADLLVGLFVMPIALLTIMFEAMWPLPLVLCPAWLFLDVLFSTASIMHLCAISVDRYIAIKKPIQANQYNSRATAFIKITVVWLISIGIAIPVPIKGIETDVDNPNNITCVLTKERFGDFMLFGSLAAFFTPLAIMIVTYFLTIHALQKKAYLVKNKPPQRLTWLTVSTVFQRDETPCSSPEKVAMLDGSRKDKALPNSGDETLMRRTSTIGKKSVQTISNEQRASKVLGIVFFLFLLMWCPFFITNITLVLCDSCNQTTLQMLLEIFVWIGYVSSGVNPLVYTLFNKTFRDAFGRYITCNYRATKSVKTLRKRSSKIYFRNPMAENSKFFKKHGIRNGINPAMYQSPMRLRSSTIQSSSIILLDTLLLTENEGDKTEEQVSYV
smiles,measurement,setting,value
CN(C)[C@@H]1Cc2ccccc2[C@@H](c2ccccc2)C1,pKi,[1],7.00
same,pKi,[2],7.03
CN(C)[C@H]1Cc2ccccc2[C@H](C2CCCCCCC2)C1,pKi,[2],7.40
CN(C)[C@@H]1Cc2ccccc2[C@@H](C2CCCCC2)C1,pKi,[1],7.70
same,pKi,[2],7.70
same,pKi,[3],8.15
CN(C)[C@H]1Cc2ccccc2[C@H](C2CCCCC2)C1,pKi,[1],7.10
same,pKi,[2],6.77
same,pKi,[3],7.52
CN(C)[C@@H]1Cc2ccccc2[C@@H](c2ccccc2Br)C1,pKi,[1],5.96
same,pKi,[2],6.19
same,pKi,[3],7.15
CN(C)[C@H]1Cc2ccccc2[C@H](c2ccccc2Br)C1,pKi,[1],6.12
same,pKi,[2],5.39
same,pKi,[3],7.11
CN(C)[C@H]1Cc2ccccc2[C@H](c2ccc(C(F)(F)F)cc2)C1,pKi,[2],6.60
CN(C)[C@@H]1Cc2ccccc2[C@@H](c2ccc(Br)cc2)C1,pKi,[1],6.66
same,pKi,[2],6.68
same,pKi,[3],7.00
CN(C)[C@H]1Cc2ccccc2[C@H](c2ccc(Br)cc2)C1,pKi,[1],7.22
same,pKi,[2],7.52
same,pKi,[3],7.15
CN(C)[C@@H]1Cc2ccccc2[C@@H](c2ccc(Cl)cc2)C1,pKi,[1],6.60
same,pKi,[2],6.52
same,pKi,[3],6.92
CN(C)[C@H]1Cc2ccccc2[C@H](c2ccc(Cl)cc2)C1,pKi,[1],7.30
same,pKi,[2],7.10
same,pKi,[3],7.26
CN(C)[C@@H]1Cc2ccccc2[C@@H](c2ccc(F)cc2)C1,pKi,[1],6.85
same,pKi,[2],6.40
same,pKi,[3],7.17
CN(C)[C@H]1Cc2ccccc2[C@H](c2ccc(F)cc2)C1,pKi,[1],7.15
same,pKi,[2],7.18
same,pKi,[3],7.12
CN(C)[C@@H]1Cc2ccccc2[C@@H](c2cccc([N+](=O)[O-])c2)C1,pKi,[1],7.13
same,pKi,[2],7.15
same,pKi,[3],8.00
CN(C)[C@H]1Cc2ccccc2[C@H](c2cccc([N+](=O)[O-])c2)C1,pKi,[1],6.30
same,pKi,[2],7.70
same,pKi,[3],6.92
CN(C)[C@@H]1Cc2ccccc2[C@@H](c2cccc(C(F)(F)F)c2)C1,pKi,[1],7.10
same,pKi,[2],7.22
same,pKi,[3],8.00
CN(C)[C@H]1Cc2ccccc2[C@H](c2cccc(C(F)(F)F)c2)C1,pKi,[1],5.89
same,pKi,[2],6.70
same,pKi,[3],6.64
CN(C)[C@@H]1Cc2ccccc2[C@@H](c2cccc(Br)c2)C1,pKi,[1],7.70
same,pKi,[2],8.10
same,pKi,[3],8.40
CN(C)[C@H]1Cc2ccccc2[C@H](c2cccc(Br)c2)C1,pKi,[1],6.59
same,pKi,[2],7.40
same,pKi,[3],6.70
CN(C)[C@@H]1Cc2ccccc2[C@@H](c2cccc(Cl)c2)C1,pKi,[1],[…]
same,pKi,[2],7.52
CN(C)[C@H]1Cc2ccccc2[C@H](c2cccc(Cl)c2)C1,pKi,[1],[…]
same,pKi,[2],7.30
CN(C)[C@@H]1Cc2ccccc2[C@@H](c2cccc(F)c2)C1,pKi,[2],7.15
same,pKi,[3],7.37
CN(C)[C@H]1Cc2ccccc2[C@H](c2cccc(F)c2)C1,pKi,[2],6.96
same,pKi,[3],6.70
CN(C)[C@H]1Cc2ccccc2[C@H](c2ccccc2)C1,pKi,[1],6.33
same,pKi,[2],6.62
CN(C)[C@@H]1Cc2ccccc2[C@@H](C2CCCCCCC2)C1,pKi,[2],8.00
CN(C)[C@H]1Cc2ccccc2[C@H](c2cccc(-c3ccccc3)c2)C1,pKi,[2],6.70
same,pKi,[3],6.00
CN(C)[C@@H]1Cc2ccccc2[C@@H](c2cccc(-c3ccccc3)c2)C1,pKi,[2],7.14
same,pKi,[3],8.30
CN(C)[C@H]1Cc2ccccc2[C@H](c2ccccc2Cl)C1,pKi,[1],5.55
same,pKi,[2],6.15
same,pKi,[3],7.30
CN(C)[C@@H]1Cc2ccccc2[C@@H](c2ccccc2Cl)C1,pKi,[1],5.62
same,pKi,[2],6.52
same,pKi,[3],6.54
Cc1ccccc1[C@@H]1C[C@@H](N(C)C)Cc2ccccc21,pKi,[1],6.15
same,pKi,[2],5.22
same,pKi,[3],5.70
Cc1ccccc1[C@H]1C[C@H](N(C)C)Cc2ccccc21,pKi,[1],6.00
same,pKi,[2],6.10
same,pKi,[3],5.80
